{"source": "patent US20090181920A1", "about": "“INTRATHECAL TREATMENT OF NEUROPATHIC PAIN WITH A2AR AGONISTS” (PGXHEALTH, LLC, priority 2008, published 2009)", "key": {"CCI-induced allodynia [1]": {"system": "CCI-induced allodynia", "assay": "Chronic constriction injury (CCI) neuropathic pain model, von Frey testing after a single intrathecal injection", "assay_type": "in vivo, Sprague Dawley rats", "details": "for Effect on CCI-induced allodynia relative to ATL313 and CGS21680: tested at 1 uM", "procedure": "(§1) Saline is used as the vehicle in the experiments. All A2A agonists are dissolved in 100% DMSO to a 10 mM concentration. These are then diluted 1:10,000 with saline. The total volume of injection for all groups is 5 μL, which consists of a 1 μL air bubble, 1 μL of agonist/vehicle, 1 μL air bubble, and finally a 2 μL flush of saline. The intermediate air bubble is used to separate drug/vehicle and the flush.\nSprague Dawley rats underwent chronic constriction injury (CCI) of the sciatic nerve or sham surgery. After pre-surgery baseline testing (Day 0=D0), rats received chronic constriction injury of the left sciatic nerve at mid-thigh level to produce neuropathic pain (chronic constriction injury model: CCI). This is seen by the fall in pain threshold between days 4 and 11 (D4, D11) after surgery relative to D0. Once CCI-induced allodynia was stable as tested by von Frey filaments, the material to be studied (e.g., vehicle or A2AR agonists CGS21680 or ATL313) was injected intrathecally. After injection, behavioral testing occurred at 4, 24, and 72 h and then weekly for 6 weeks.\nThe results of the studies are shown in FIG. 1 with the translation of Y-axis units as follows: 5=10 grams, 4.75=5.62 grams, 4.5=3.16 grams, 4.25=[…], 4=1 gram, 3.75=0.56 grams, 3.5=0.32 grams.\nAlthough the CCI surgery is unilateral (left sciatic nerve), the allodynia is present bilaterally. In addition, the reversal of allodynia by A2A agonism also occurs bilaterally. Therefore, ATL313 activates A2A receptors within the spinal cord altering the mechanisms leading to central sensitization.\nThe animals following unilateral CCI surgery of the left sciatic nerve, as noted above, have allodynia in both hind paws. For simplicity all graphs show left hind paw responses only, as the right hind paw had equivalent responses."}, "CCI-induced allodynia [2]": {"system": "CCI-induced allodynia", "assay": "Blockade and reversal of A2A agonist (ATL313) by antagonist ZM241385 in the CCI model, von Frey testing", "assay_type": "in vivo, male Sprague-Dawley rats", "procedure": "as §1\nCCI surgery and indwelling intrathecal catheters were implanted in male Sprague-Dawley rats (325-350 g, n=6/group). 10-14 days after surgery, when the allodynia is stable, an A2A antagonist (ZM241385, 10 uM, Tocris Bioscience) or vehicle was co-administered with ATL313 or vehicle. von Frey testing was done before surgery, before intrathecal injections, and 1, 2, 3, 4, 6, and 24 h after injection.\nIn a separate group of animals, ATL313 (1 uM) was administered 10-14 days after CCI surgery. One week after ATL313 (1 uM, i.t.) administration, ZM241385 (10 uM) or equivolume vehicle was administered intrathecally. von Frey testing was done 1, 2, 3, 4, 6 & 24 h after injection."}, "[3]": {"details": "single intrathecal injection, 1 uM, given 10-14 days after CCI surgery, P<0.05"}}, "data": [{"smiles": "COC(=O)N1CCC(CC#Cc2nc(N)c3ncn(C4OC(C(=O)NC5CC5)C(O)C4O)c3n2)CC1", "note": "(centres unmarked) [ATL313, 4-{3-[6-amino-9-(5-cyclopropylcarbamoyl-3,4-dihydroxy-tetrahydro-furan-2-yl)-9H-purin-2-yl]-prop-2-ynyl}-piperidine-1-carboxylic acid methyl ester]", "values": [{"measurement": "Effect on CCI-induced allodynia", "setting": "CCI-induced allodynia [1]; 0.1 uM in 5 uL intrathecal, compared to saline-injected animals, P>0.05", "result": "no significant impact on CCI-induced allodynia"}, {"measurement": "Analgesic effect in sham-operated animals", "setting": "CCI-induced allodynia [1]; sham-operated animals, intrathecal, P>0.05", "result": "no effect on sham-operated animals"}, {"measurement": "Duration of reversal of allodynia", "setting": "CCI-induced allodynia [1]; [3]", "result": "at least 4 weeks"}, {"measurement": "Effect on CCI-induced allodynia (mechanical sensitivity to von Frey filaments)", "setting": "CCI-induced allodynia [1]; [3]", "result": "partial reversal of the allodynia"}]}, {"smiles": "CCNC(=O)[C@H]1O[C@@H](n2cnc3c(N)nc(NCCc4ccc(CCC(=O)O)cc4)nc32)[C@H](O)[C@@H]1O", "note": "[CGS21680, 3-[4-[2-[[6-amino-9-[(2R,3R,4S,5S)-5-(ethylcarbamoyl)-3,4-dihydroxy-oxolan-2-yl]purin-2-yl]amino]ethyl]phenyl]propanoic acid, reference compound]", "values": [{"measurement": "Reversal of CCI-induced allodynia compared with ATL313", "setting": "CCI-induced allodynia [1]; intrathecal, at a 10-fold higher dose than that of ATL313, P<0.001", "result": "comparable reversal of CCI-induced allodynia, in both duration and intensity"}]}, {"smiles": "COc1ccccc1OC(=O)N1CCC(CC#Cc2nc(N)c3ncn(C4OC(C(=O)NC5CC5)C(O)C4O)c3n2)CC1", "note": "(centres unmarked) [Compound A, 4-{3-[6-Amino-9-(5-cyclopropylcarbamoyl-3,4-dihydroxy-tetrahydro-furan-2-yl)-9H-purin-2-yl]-prop-2-ynyl}-piperidine-1-carboxylic acid 2-methoxyphenyl ester]", "values": [{"measurement": "Effect on CCI-induced allodynia relative to ATL313 and CGS21680", "setting": "CCI-induced allodynia [1]; intrathecal", "result": "ranged between ATL313 (1 μM) and CGS21680 (1 μM)"}]}, {"smiles": "Nc1nc(C#CCC2CCN(C(=O)OC3CCC3)CC2)nc2c1ncn2C1OC(C(=O)NC2CC2)C(O)C1O", "note": "(centres unmarked) [Compound B, 4-{3-[6-Amino-9-(5-cyclopropylcarbamoyl-3,4-dihydroxy-tetrahydro-furan-2-yl)-9H-purin-2-yl]-prop-2-ynyl}-piperidine-1-carboxylic acid cyclobutyl ester]", "values": [{"measurement": "Effect on CCI-induced allodynia relative to ATL313 and CGS21680", "setting": "CCI-induced allodynia [1]; intrathecal", "result": "ranged between ATL313 (1 μM) and CGS21680 (1 μM)"}]}, {"smiles": "Nc1nc(C#CCC2CCN(C(=O)OCC3CC3)CC2)nc2c1ncn2C1OC(C(=O)NC2CC2)C(O)C1O", "note": "(centres unmarked) [Compound C, 4-{3-[6-Amino-9-(5-cyclopropylcarbamoyl-3,4-dihydroxy-tetrahydro-furan-2-yl)-9H-purin-2-yl]-prop-2-ynyl}-piperidine-1-carboxylic acid cyclopropylmethyl ester]", "values": [{"measurement": "Effect on CCI-induced allodynia relative to ATL313 and CGS21680", "setting": "CCI-induced allodynia [1]; intrathecal", "result": "ranged between ATL313 (1 μM) and CGS21680 (1 μM)"}]}, {"smiles": "Nc1nc(NCCc2ccc(O)cc2)nc2nc(-c3ccco3)nn12", "note": "[ZM241385]", "values": [{"measurement": "Effect of co-administered antagonist on the ATL313 effect on CCI-induced allodynia", "setting": "CCI-induced allodynia [2]; ZM241385 10 uM co-administered intrathecally with ATL313 1 uM, 10-14 days after CCI surgery, P<0.0001", "result": "abolishes the effect of ATL313 on the CCI-induced allodynia"}, {"measurement": "Effect of antagonist on the established reversal of allodynia", "setting": "CCI-induced allodynia [2]; ZM241385 10 uM intrathecal, one week after ATL313 1 uM i.t.", "result": "had no effect on reversal of the allodynia induced by the previous ATL313 administration"}, {"measurement": "Effect of antagonist alone on CCI-induced allodynia", "setting": "CCI-induced allodynia [2]; ZM241385 10 uM intrathecal, without agonist, P>0.05", "result": "has no effect on the CCI-induced allodynia"}]}]}
